The structures appear in SMILES notation.

One series relates to MMP-1, MMP-2, MMP-3, MMP-9 and MMP-13.
Test: not given
As to conditions: prior art, non-selective inhibitors; cited from earlier work.
`CC1(C)SCCN(S(=O)(=O)c2ccc(Oc3ccncc3)cc2)[C@H]1C(=O)NO` [AG-3340]: the “inhibition of several MMPs (in words)” value was “inhibit both MMP-1, MMP-2, MMP-3, MMP-9 and MMP-13”.
As to `COc1ccc(S(=O)(=O)N(Cc2cccnc2)[C@@H](C(=O)NO)C(C)C)cc1` [CGS-27.023A], the “inhibition of several MMPs (in words)” value was “inhibit both MMP-1, MMP-2, MMP-3, MMP-9 and MMP-13”.

A further series concerns the target T1, human collagenase-3 catalytic domain enzyme (MMP13) (Homo sapiens, UniProt P45452).
T1 construct: human collagenase-3 catalytic domain enzyme
Put plainly: MMP13CD Thiopeptolide Assay. It counts as biochemical.
Conditions: not given
On the procedure:
MMP13CD Thiopeptolide Assay: Proteolysis of the thiopeptolide substrate Ac-Pro-Leu-Gly-thioester-Leu-Leu-Gly-OEt is used as the primary screen to determine IC50 values for MMP13 inhibitors. A 100 μl reaction contains 50 mM HEPES, 10 mM CaCl2, pH 7.0 (RT), 1 mM 5,5′-dithiobis(2-nitrobenzoic acid) (DTNB), 100 μM substrate, inhibitor in 2.0% DMSO and 2.5 nM human collagenase-3 catalytic domain enzyme. Inhibitors are screened from 100 μM to 0.5 nM. […] Percentage of control velocity in inhibited treatments is plotted against inhibitor concentration to calculate IC50 values.
`O=C(NCc1ccc2c(c1)OCO2)c1ccc2[nH]c(=O)n(Cc3ccc4c(c3)OCO4)c(=O)c2c1` [Example 28, 3-(Benzo[1,3]dioxol-5-ylmethyl)-2,4-dioxo-1,2,3,4-tetrahydroquinazoline-6-carboxylic acid (benzo[1,3]dioxol-5-ylmethyl)amide]: 9 nM corresponded to half-maximal inhibition (IC50).
The compound `Cn1c(=O)[nH]c(=O)c2cc(C(=O)NCc3ccc4c(c3)OCO4)ccc21` [Example 33, 1-Methyl-2,4-dioxo-1,2,3,4-tetrahydrquinazoline-6-carboxylic acid (benzo[1,3]-dioxol-5-ylmethyl)amide] yielded an IC50 of 3 nM.
The same measure, in the same setting: the same measure for `COC(=O)c1ccc(Cn2c(=O)c3cc(C(=O)NCc4ccc(OC)cc4)ccc3n(C)c2=O)cc1` [Example 34, Methyl 4-[6-(4-methoxy-benzylcarbamoyl)-1-methyl-2,4-dioxo-1,4-dihydro-2H-quinazolin-3-ylmethyl]-benzoate]: 26 nM; for `Cn1c(=O)n(C/C=C/c2ccccc2)c(=O)c2cc(C(=O)NCc3ccc4c(c3)OCO4)ccc21` [Example 36, 1-Methyl-2,4-dioxo-3-((E)-3phenylally)-1,2,3,4-tetrahydroquinazoline-6-carboxylic acid (benzo[1,3]dioxol-5-ylmethyl)amide]: 600 nM; for `O=C(OCc1ccccc1)c1ccc2[nH]c(=O)n(Cc3ccccc3)c(=O)c2c1` [Example 37, Benzyl 3-benzyl-2,4-dioxo-1,2,3,4-tetrahydroquinazolne-6-carboxylate]: 750 nM.
Still for that read-out and setting: under `O=C(OCc1ccncc1)c1ccc2[nH]c(=O)n(Cc3ccccc3)c(=O)c2c1` [Example 39, 4-Pyridylmethyl 3-benzyl-2,4-dioxo-1,2,3,4-tetrahydroqinazoline-6-carboxylate] stands 1 nM; under `Cn1c(=O)n(Cc2ccccc2)c(=O)c2cc(C(=O)OCc3ccncc3)ccc21` [Example 40, 4-Pyridylmethyl 3-benzyl-1-methyl-2,4-dioxo-1,3,3,4-tetrahydroquinazoline-6-carboxylate], 28 nM; under `O=C(OCc1ccc2c(c1)OCO2)c1ccc2[nH]c(=O)n(Cc3ccccc3)c(=O)c2c1` [Example 41, Benzo[1,3]dioxol-5-ylmethyl3-benzyl-2,4-dioxo-1,2,3,4-tetrahydroquinazoline-6-carboxylate], 29 nM.
Regarding `Cn1c(=O)n(Cc2ccccc2)c(=O)c2cc(C(=O)OCc3ccc4c(c3)OCO4)ccc21` [Example 42, Benzo[1,3]dioxol-5-ylmethyl3-benzyl-1-methyl-2,4-dioxo-1,2,3,4-tetrahydroquinazoline-6-carboxylate], it took 31 nM to reach half-maximal inhibition (IC50).
On the same count and under the same terms, the same measure for `O=C(OCc1ccccc1)c1ccc2c(c1)c(=O)n(Cc1ccncc1)c(=O)n2Cc1ccccc1` [Example 43, Benzyl 1-benzyl-2,4-dioxo-3-pyrid-4-ylmethyl-1,2,3,4-tetrahydroquinazoline-6carboxylate]: 11 nM; for `O=C(OCc1ccncc1)c1ccc2[nH]c(=O)n(Cc3cccs3)c(=O)c2c1` [Example 44, 4-Pyridylmethyl 2,4-dioxo-3-(thien-2-ylmethyl)-1,2,3,4-tetrahydroquinazoline-6-carboxylate]: 4 nM; for `O=C(OCc1ccncc1)c1ccc2[nH]c(=O)n(Cc3ccc4c(c3)OCO4)c(=O)c2c1` [Example 45, 4-Pyridylmethyl3-(benzo[1,3]dioxol-5-ylmethyl)-2,4-dioxo-1,2,3,4-tetrahydroquinazoline6-carboxylate]: 7 nM.
On to `O=C(OCc1ccccc1)c1cnc2[nH]c(=O)n(Cc3ccccc3)c(=O)c2c1` [Example 46, Benzyl 3-benzyl-2,4-dioxo-1,2,3,4-tetrahydroprido[2,3-d]pyrimidine-6-carboxylate], for which it took 2.5 nM to reach half-maximal inhibition (IC50). Against the preceding compound, the IC50 is about 2.8-fold lower.
The same measure, in the same setting: under `O=C(OCc1ccncc1)c1cnc2[nH]c(=O)n(Cc3ccccc3)c(=O)c2c1` [Example 47, 4-Pyridylmethyl 3-benzyl-2,4-dioxo-1,2,3,4-tetrahydropyrido[2,3-α]pyrimidine-6-carboxylate] stands 1210 nM; under `O=C(NCc1ccc2c(c1)OCO2)c1ccc2[nH]c(=S)n(Cc3ccccc3)c(=O)c2c1` [Example 48, 3-Benzyl-4-oxo-2-thioxo-1,2,3,4-tetrahydroquinazoline-6-carboxylic acid (benzo[1,3]dioxol-5-ylmethyl)amide], 16 nM.
Same read-out and setting: under `Cn1c(=O)n(Cc2ccc(C(=O)O)cc2)c(=O)c2cc(C(=O)NCc3ccc(O)cc3)ccc21` [Example 49, 4-[6-(4-Hydroxy-benzylcarbamoyl)-1-methyl-2,4-dioxo-1,4-dihydro-2H-quinazolin-3-ylmethyl]-benzoic acid] stands 7 nM.
On the same count and under the same terms, under `COc1ccc(CNC(=O)c2ccc3c(c2)c(=O)n(Cc2ccc(C(=O)N(C)C)cc2)c(=O)n3C)cc1` [Example 50, 3-(4-Dimethylcarbamoyl-benzyl)-1-methyl-2,4-dioxo-1,2,3,4-tetrahydro quinazoline-6-carboxylic acid 4-methoxy-benzylamide] stands 96 nM; under `CNC(=O)c1ccc(Cn2c(=O)c3cc(C(=O)NCc4ccc(OC)cc4)ccc3n(C)c2=O)cc1` [Example 51, 1-Methyl-3-(4-methylcarbamoyl-benzyl)-2,4-dioxo-1,2,3,4-tetrahydro-quinazoline-6-carboxylic acid 4-methoxy-benzylamide], 62 nM; under `C=CCn1c(=O)c2cc(C(=O)NCc3ccc(OC)cc3)ccc2n(C)c1=O` [Example 52, 3-Allyl-1-methyl-2,4-dioxo-1,2,3,4-tethydro-quinazoline-6-carboxylic acid 4-methoxy-benzylamiide], 14 nM.

Tested on in the next series: not given
Test: not given
Conditions: not given
For the compound `Cn1c(=O)n(Cc2ccccc2)c(=O)c2cc(C(=O)OC/C=C/c3ccncc3)ccc21`, the melting point was determined as 147 °C.
On the same count and under the same terms, under `Cn1c(=O)n(Cc2ccccc2)c(=O)c2cc(C(=O)OC/C=C/c3cccnc3)ccc21` stands 184 °C.
With `COc1ccc(CNC(=O)c2ccc3c(c2)c(=O)n(Cc2ccc(C(=O)OCCN(C)C)c(OC)c2)c(=O)n3C)cc1`, the melting point was 130 °C.
On the same count and under the same terms, under `COc1ccc(CNC(=O)c2ccc3c(c2)c(=O)n(Cc2ccc(-c4noc(=O)[nH]4)cc2)c(=O)n3C)cc1` stands 305 °C; under `Cn1c(=O)n(Cc2ccc(F)cc2)c(=O)c2cc(C(=O)NCc3cccnc3)ccc21`, 166 to 168 °C.
Still for that read-out and setting: the same measure for `Cn1c(=O)n(Cc2ccc(Cl)cc2)c(=O)c2cc(C(=O)NCc3cccnc3)ccc21`: 173 to 175 °C; for `COc1cccc(CNC(=O)c2ccc3c(c2)c(=O)n(Cc2ccc(Cl)cc2)c(=O)n3C)c1`: 178 to 180 °C.
The same measure, in the same setting: the same measure for `COc1cc(CNC(=O)c2ccc3c(c2)c(=O)n(Cc2ccc(F)cc2)c(=O)n3C)ccn1`: 174 to 175 °C; for `COc1ccc(CNC(=O)c2ccc3c(c2)c(=O)n(Cc2ccc(C4(C(=O)OC(C)(C)C)CC4)cc2)c(=O)n3C)cc1`: 148 to 149 °C.
As to `COc1ccc(CNC(=O)c2ccc3c(c2)c(=O)n(Cc2ccc(C4(C(=O)O)CC4)cc2)c(=O)n3C)cc1`, the melting point was 179 to 181 °C.
With `Cn1c(=O)n(Cc2ccccc2)c(=O)c2cc(SCc3ccccc3)ccc21`, the melting point was 117 to 118 °C.
Same read-out and setting: the same measure for `Cn1c(=O)n(Cc2ccccc2)c(=O)c2cc([S+]([O-])Cc3ccccc3)ccc21` (centres unmarked): 182 to 183 °C.
Compound `Cn1c(=O)n(Cc2ccccc2)c(=O)c2cc(S(=O)(=O)Cc3ccccc3)ccc21` displayed a melting point of 173 to 175 °C.
The same measure, in the same setting: under `O=C(NCc1ccc2c(c1)OCO2)c1ccc2[nH]c(=O)n(Cc3ccc4c(c3)OCO4)c(=O)c2c1` [Example 28, 3-(Benzo[1,3]dioxol-5-ylmethyl)-2,4-dioxo-1,2,3,4-tetrahydroquinazoline-6-carboxylic acid (benzo[1,3]dioxol-5-ylmethyl)amide] stands 245.2 °C.

Usually IC50 stands for the point on the concentration scale where inhibition reaches its midpoint. A high value points to lower potency. As usually defined, the melting point is the temperature, or range, at which the solid turns liquid.

The record behind these values is US20020193377A1, “Quinazolines as MMP-13 inhibitors” (priority 2001, published 2002).
